Data as given in the kinase profiling compilation of Christmann-Franck et al. (2016).
Blank lines part the entries; values can stand above or below the compound they belong to.

Key:
Experiment in all cases: radiometric filter-binding kinase assay
HIPK3 (human) = HIPK3 (human) (UniProt Q9H422)
PIM1 (human) = PIM1 (human) (UniProt P11309)
MAPK3 (human) = MAPK3 (human) (UniProt P27361)
GSK3B (human) = GSK3B (human) (UniProt P49841)
MAPKAPK5 (human) = MAPKAPK5 (human) (UniProt Q8IW41)
PRKCZ (human) = PRKCZ (human) (UniProt Q05513)
Sequence of PRKCZ (human) (Q05513 whole entry, looked up): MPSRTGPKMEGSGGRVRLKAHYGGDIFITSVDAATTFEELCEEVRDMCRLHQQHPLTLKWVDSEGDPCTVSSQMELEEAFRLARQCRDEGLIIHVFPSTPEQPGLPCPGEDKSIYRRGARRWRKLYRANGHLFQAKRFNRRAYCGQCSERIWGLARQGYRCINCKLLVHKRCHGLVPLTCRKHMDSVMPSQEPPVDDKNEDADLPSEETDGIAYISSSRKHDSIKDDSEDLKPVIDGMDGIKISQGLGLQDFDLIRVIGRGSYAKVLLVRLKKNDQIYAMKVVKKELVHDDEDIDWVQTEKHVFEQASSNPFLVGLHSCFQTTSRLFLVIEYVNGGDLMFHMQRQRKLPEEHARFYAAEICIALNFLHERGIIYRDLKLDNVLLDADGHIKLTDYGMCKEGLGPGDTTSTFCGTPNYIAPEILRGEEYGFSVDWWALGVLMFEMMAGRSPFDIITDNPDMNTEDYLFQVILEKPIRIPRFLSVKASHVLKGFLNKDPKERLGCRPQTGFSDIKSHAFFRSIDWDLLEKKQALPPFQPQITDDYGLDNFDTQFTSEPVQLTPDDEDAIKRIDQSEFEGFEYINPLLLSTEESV

MAPK9 (human) = MAPK9 (human) (UniProt P45984)
Sequence of MAPK9 (human) (P45984 whole entry, looked up): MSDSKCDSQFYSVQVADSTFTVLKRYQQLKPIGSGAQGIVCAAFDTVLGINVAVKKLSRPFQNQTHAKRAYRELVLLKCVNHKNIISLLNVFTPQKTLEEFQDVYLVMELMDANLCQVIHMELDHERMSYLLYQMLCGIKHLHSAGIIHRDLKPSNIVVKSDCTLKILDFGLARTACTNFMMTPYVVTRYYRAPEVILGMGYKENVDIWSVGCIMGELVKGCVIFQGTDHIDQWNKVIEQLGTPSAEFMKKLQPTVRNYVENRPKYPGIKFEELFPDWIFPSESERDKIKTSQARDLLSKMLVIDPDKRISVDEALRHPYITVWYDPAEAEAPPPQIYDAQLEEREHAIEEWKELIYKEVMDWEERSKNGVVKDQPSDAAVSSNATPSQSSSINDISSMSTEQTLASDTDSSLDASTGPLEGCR

STK3 (human) = STK3 (human) (UniProt Q13188)
MAPK12 (human) = MAPK12 (human) (UniProt P53778)
DYRK1A (human) = DYRK1A (human) (UniProt Q13627)
PHKG1 (human) = PHKG1 (human) (UniProt Q16816)
PAK7 (human) = PAK7 (human) (UniProt Q9P286)
Sequence of PAK7 (human) (Q9P286 whole entry, looked up): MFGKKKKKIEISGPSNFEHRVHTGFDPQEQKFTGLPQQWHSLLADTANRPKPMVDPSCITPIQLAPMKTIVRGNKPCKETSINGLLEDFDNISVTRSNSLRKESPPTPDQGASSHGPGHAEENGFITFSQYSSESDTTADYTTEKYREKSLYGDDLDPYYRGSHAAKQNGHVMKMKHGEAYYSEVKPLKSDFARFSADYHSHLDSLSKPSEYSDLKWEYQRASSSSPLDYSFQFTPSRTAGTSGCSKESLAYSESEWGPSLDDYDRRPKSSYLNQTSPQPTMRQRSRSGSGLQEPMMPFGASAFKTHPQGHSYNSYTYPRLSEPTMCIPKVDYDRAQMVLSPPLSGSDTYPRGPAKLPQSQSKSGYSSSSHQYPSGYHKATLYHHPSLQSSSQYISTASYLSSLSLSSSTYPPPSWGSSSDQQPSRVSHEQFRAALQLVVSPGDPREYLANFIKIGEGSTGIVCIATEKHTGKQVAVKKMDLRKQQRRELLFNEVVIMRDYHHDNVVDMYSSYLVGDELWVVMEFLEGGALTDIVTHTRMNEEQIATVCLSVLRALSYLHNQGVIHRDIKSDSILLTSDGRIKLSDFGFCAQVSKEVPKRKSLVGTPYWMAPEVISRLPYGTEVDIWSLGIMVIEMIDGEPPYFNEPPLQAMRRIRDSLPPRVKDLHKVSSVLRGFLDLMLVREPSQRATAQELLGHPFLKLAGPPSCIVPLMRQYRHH

EEF2K (human) = EEF2K (human) (UniProt O00418)
Sequence of EEF2K (human) (O00418 whole entry, looked up): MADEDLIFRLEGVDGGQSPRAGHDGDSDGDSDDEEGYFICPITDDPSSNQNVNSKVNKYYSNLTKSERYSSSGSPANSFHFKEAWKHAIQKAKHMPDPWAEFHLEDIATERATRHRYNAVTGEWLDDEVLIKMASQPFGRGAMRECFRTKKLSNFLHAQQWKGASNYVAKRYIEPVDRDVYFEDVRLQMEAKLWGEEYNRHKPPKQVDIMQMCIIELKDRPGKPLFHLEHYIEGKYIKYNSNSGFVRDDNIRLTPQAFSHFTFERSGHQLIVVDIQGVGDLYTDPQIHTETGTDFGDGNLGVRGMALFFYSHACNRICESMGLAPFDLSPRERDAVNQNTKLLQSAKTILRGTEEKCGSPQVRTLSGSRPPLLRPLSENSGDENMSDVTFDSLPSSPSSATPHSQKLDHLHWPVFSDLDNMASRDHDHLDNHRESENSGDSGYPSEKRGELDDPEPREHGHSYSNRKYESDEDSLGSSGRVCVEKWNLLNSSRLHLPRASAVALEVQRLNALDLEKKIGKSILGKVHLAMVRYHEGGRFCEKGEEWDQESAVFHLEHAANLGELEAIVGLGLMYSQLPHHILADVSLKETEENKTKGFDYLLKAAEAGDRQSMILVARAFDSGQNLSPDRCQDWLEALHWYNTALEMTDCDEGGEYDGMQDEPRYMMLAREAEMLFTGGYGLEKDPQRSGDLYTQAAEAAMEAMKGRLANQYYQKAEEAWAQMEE

MELK (human) = MELK (human) (UniProt Q14680)
MAPKAPK2 (human) = MAPKAPK2 (human) (UniProt P49137)
Sequence of MAPKAPK2 (human) (P49137 whole entry, looked up): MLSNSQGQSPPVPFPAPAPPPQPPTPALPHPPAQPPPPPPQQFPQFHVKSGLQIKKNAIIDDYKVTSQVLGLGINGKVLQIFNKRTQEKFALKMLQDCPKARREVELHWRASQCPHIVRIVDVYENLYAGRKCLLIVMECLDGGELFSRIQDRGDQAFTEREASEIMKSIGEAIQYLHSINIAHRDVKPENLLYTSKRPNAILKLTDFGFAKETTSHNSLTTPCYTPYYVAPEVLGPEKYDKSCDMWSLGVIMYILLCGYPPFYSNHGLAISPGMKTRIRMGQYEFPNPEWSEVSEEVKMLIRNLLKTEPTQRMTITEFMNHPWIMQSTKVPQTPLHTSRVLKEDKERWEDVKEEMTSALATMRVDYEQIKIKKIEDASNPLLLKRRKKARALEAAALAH

MKNK1 (human) = MKNK1 (human) (UniProt Q9BUB5)
BRSK2 (human) = BRSK2 (human) (UniProt Q8IWQ3)
MAPK13 (human) = MAPK13 (human) (UniProt O15264)
[1] = tested on: SGK1 (human), O00141 [S422D]
Sequence of SGK1 (human), O00141 [S422D] (O00141 whole entry S422D, looked up): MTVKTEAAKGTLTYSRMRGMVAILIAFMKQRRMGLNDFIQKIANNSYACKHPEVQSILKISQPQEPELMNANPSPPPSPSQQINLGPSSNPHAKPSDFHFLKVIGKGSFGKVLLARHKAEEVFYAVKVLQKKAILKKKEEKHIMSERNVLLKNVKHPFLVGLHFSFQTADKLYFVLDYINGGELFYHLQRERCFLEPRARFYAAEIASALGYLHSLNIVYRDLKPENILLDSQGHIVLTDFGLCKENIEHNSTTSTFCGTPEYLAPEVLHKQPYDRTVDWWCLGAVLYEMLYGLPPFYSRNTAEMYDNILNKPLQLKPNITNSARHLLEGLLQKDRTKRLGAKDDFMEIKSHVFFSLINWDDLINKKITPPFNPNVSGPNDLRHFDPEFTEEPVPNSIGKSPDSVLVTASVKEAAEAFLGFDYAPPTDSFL

PIM3 (human) = PIM3 (human) (UniProt Q86V86)
CAMKK2 (human) = CAMKK2 (human) (UniProt Q96RR4)
Sequence of CAMKK2 (human) (Q96RR4 whole entry, looked up): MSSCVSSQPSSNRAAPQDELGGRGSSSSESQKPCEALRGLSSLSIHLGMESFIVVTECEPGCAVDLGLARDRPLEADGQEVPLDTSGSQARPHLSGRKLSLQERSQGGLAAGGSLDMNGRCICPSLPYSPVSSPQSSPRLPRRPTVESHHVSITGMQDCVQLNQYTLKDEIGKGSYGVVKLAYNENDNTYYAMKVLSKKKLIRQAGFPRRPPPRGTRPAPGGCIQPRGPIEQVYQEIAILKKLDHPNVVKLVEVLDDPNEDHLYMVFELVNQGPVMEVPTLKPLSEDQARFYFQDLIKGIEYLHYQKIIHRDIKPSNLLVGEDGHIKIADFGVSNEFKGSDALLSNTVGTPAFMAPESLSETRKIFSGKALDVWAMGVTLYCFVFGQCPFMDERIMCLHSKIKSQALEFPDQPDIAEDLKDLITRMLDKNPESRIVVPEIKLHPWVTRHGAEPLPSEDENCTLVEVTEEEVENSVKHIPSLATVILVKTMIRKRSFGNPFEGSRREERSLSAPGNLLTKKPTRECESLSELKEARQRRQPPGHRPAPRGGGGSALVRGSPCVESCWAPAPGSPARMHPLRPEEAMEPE

PIM2 (human) = PIM2 (human) (UniProt Q9P1W9)
PRKACA (human) = PRKACA (human) (UniProt P17612)
PRKAA1 or PRKAA2 (rat) = conditions: accession and sequence are those of the human protein

Sequence of PIM1 (human) (P11309 whole entry, looked up): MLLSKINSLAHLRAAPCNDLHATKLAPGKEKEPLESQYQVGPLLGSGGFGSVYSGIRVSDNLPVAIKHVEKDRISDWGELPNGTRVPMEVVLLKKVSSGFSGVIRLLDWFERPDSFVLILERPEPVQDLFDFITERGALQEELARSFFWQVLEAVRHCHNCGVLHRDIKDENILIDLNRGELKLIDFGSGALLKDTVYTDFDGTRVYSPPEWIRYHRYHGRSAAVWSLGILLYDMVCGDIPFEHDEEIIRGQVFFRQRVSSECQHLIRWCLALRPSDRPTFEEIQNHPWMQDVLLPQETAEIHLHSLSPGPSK
Sequence of GSK3B (human) (P49841 whole entry, looked up): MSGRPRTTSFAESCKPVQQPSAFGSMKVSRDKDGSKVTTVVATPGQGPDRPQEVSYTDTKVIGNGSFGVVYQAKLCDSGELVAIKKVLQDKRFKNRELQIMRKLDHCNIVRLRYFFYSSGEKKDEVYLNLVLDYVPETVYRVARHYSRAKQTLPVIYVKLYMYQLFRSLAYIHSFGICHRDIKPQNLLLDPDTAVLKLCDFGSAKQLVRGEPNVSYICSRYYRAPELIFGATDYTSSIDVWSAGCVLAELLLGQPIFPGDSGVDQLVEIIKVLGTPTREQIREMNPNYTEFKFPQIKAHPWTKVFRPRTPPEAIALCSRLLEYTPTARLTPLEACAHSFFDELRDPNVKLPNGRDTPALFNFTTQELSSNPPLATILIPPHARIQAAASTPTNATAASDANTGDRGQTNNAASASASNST

residual activity (HIPK3 (human); compound 0.1 µM): 108%
residual activity (HIPK3 (human); compound 1.0 µM): 106%
residual activity (HIPK3 (human); compound 10.0 µM): 59%
residual activity (PIM1 (human); compound 0.1 µM): 9%
residual activity (PIM1 (human); compound 1.0 µM): 1%
residual activity (PIM1 (human); compound 10.0 µM): 2%
residual activity (MAPK3 (human); compound 0.1 µM): 94%
residual activity (MAPK3 (human); compound 1.0 µM): 102%
residual activity (MAPK3 (human); compound 10.0 µM): 96%
residual activity (GSK3B (human); compound 0.1 µM): 67%
residual activity (GSK3B (human); compound 1.0 µM): 20%
residual activity (GSK3B (human); compound 10.0 µM): 5%
residual activity (MAPKAPK5 (human); compound 0.1 µM): 104%
residual activity (MAPKAPK5 (human); compound 1.0 µM): 103%
residual activity (MAPKAPK5 (human); compound 10.0 µM): 108%
residual activity (PRKCZ (human); compound 0.1 µM): 118%
residual activity (PRKCZ (human); compound 1.0 µM): 74%
residual activity (PRKCZ (human); compound 10.0 µM): 62%
residual activity (MAPK9 (human); compound 0.1 µM): 92%
residual activity (MAPK9 (human); compound 1.0 µM): 63%
residual activity (MAPK9 (human); compound 10.0 µM): 35%
residual activity (STK3 (human); compound 0.1 µM): 20%
residual activity (STK3 (human); compound 1.0 µM): 3%
residual activity (STK3 (human); compound 10.0 µM): 2%
residual activity (MAPK12 (human); compound 0.1 µM): 99%
residual activity (MAPK12 (human); compound 1.0 µM): 90%
residual activity (MAPK12 (human); compound 10.0 µM): 74%
residual activity (DYRK1A (human); compound 0.1 µM): 96%
residual activity (DYRK1A (human); compound 1.0 µM): 68%
residual activity (DYRK1A (human); compound 10.0 µM): 41%
residual activity (PHKG1 (human); compound 0.1 µM): 77%
residual activity (PHKG1 (human); compound 1.0 µM): 17%
residual activity (PHKG1 (human); compound 10.0 µM): 11%
residual activity (PAK7 (human); compound 0.1 µM): 108%
residual activity (PAK7 (human); compound 1.0 µM): 81%
residual activity (PAK7 (human); compound 10.0 µM): 85%
residual activity (EEF2K (human); compound 0.1 µM): 106%
residual activity (EEF2K (human); compound 1.0 µM): 106%
residual activity (EEF2K (human); compound 10.0 µM): 108%
residual activity (MELK (human); compound 0.1 µM): 72%
residual activity (MELK (human); compound 1.0 µM): 20%
residual activity (MELK (human); compound 10.0 µM): 8%
residual activity (MAPKAPK2 (human); compound 0.1 µM): 107%
residual activity (MAPKAPK2 (human); compound 1.0 µM): 93%
residual activity (MAPKAPK2 (human); compound 10.0 µM): 62%
residual activity (MKNK1 (human); compound 0.1 µM): 94%
residual activity (MKNK1 (human); compound 1.0 µM): 80%
residual activity (MKNK1 (human); compound 10.0 µM): 62%
residual activity (BRSK2 (human); compound 0.1 µM): 72%
residual activity (BRSK2 (human); compound 1.0 µM): 18%
residual activity (BRSK2 (human); compound 10.0 µM): 6%
residual activity (MAPK13 (human); compound 0.1 µM): 89%
residual activity (MAPK13 (human); compound 1.0 µM): 65%
residual activity (MAPK13 (human); compound 10.0 µM): 37%
residual activity ([1]; compound 0.1 µM): 69%
residual activity ([1]; compound 1.0 µM): 25%
residual activity ([1]; compound 10.0 µM): 6%
residual activity (PIM3 (human); compound 0.1 µM): 2%
residual activity (PIM3 (human); compound 1.0 µM): 1%
residual activity (PIM3 (human); compound 10.0 µM): 1%
residual activity (CAMKK2 (human); compound 0.1 µM): 113%
residual activity (CAMKK2 (human); compound 1.0 µM): 68%
residual activity (CAMKK2 (human); compound 10.0 µM): 37%
residual activity (PIM2 (human); compound 0.1 µM): 38%
residual activity (PIM2 (human); compound 1.0 µM): 6%
residual activity (PIM2 (human); compound 10.0 µM): 1%
residual activity (PRKACA (human); compound 0.1 µM): 42%
residual activity (PRKACA (human); compound 1.0 µM): 7%
residual activity (PRKACA (human); compound 10.0 µM): 2%
residual activity (PRKAA1 or PRKAA2 (rat); compound 0.1 µM): 64%
residual activity (PRKAA1 or PRKAA2 (rat); compound 1.0 µM): 19%
residual activity (PRKAA1 or PRKAA2 (rat); compound 10.0 µM): 24%
Compound: COc1ccc2c(c1)c1c3c(c4c5ccccc5n(C)c4c1n2CC(O)CN(C)C)C(=O)NC3=O (stereo not given)

residual activity (HIPK3 (human); compound 1.0 µM): 143%
residual activity (HIPK3 (human); compound 10.0 µM): 136%
residual activity (PIM1 (human); compound 1.0 µM): 111%
residual activity (PIM1 (human); compound 10.0 µM): 115%
residual activity (MAPK3 (human); compound 1.0 µM): 124%
residual activity (MAPK3 (human); compound 10.0 µM): 111%
residual activity (GSK3B (human); compound 1.0 µM): 119%
residual activity (GSK3B (human); compound 10.0 µM): 125%
residual activity (MAPKAPK5 (human); compound 1.0 µM): 107%
residual activity (MAPKAPK5 (human); compound 10.0 µM): 109%
residual activity (PRKCZ (human); compound 1.0 µM): 97%
residual activity (PRKCZ (human); compound 10.0 µM): 102%
residual activity (MAPK9 (human); compound 1.0 µM): 122%
residual activity (MAPK9 (human); compound 10.0 µM): 124%
residual activity (STK3 (human); compound 1.0 µM): 102%
residual activity (STK3 (human); compound 10.0 µM): 104%
residual activity (MAPK12 (human); compound 1.0 µM): 113%
residual activity (MAPK12 (human); compound 10.0 µM): 112%
residual activity (DYRK1A (human); compound 1.0 µM): 105%
residual activity (DYRK1A (human); compound 10.0 µM): 101%
residual activity (PHKG1 (human); compound 1.0 µM): 113%
residual activity (PHKG1 (human); compound 10.0 µM): 119%
residual activity (PAK7 (human); compound 1.0 µM): 109%
residual activity (PAK7 (human); compound 10.0 µM): 125%
residual activity (EEF2K (human); compound 1.0 µM): 102%
residual activity (EEF2K (human); compound 10.0 µM): 103%
residual activity (MELK (human); compound 1.0 µM): 109%
residual activity (MELK (human); compound 10.0 µM): 91%
residual activity (MAPKAPK2 (human); compound 1.0 µM): 97%
residual activity (MAPKAPK2 (human); compound 10.0 µM): 95%
residual activity (MKNK1 (human); compound 1.0 µM): 95%
residual activity (MKNK1 (human); compound 10.0 µM): 92%
residual activity (BRSK2 (human); compound 1.0 µM): 99%
residual activity (BRSK2 (human); compound 10.0 µM): 92%
residual activity (MAPK13 (human); compound 1.0 µM): 104%
residual activity (MAPK13 (human); compound 10.0 µM): 109%
residual activity ([1]; compound 1.0 µM): 97%
residual activity ([1]; compound 10.0 µM): 98%
residual activity (PIM3 (human); compound 1.0 µM): 101%
residual activity (PIM3 (human); compound 10.0 µM): 95%
residual activity (CAMKK2 (human); compound 1.0 µM): 112%
residual activity (CAMKK2 (human); compound 10.0 µM): 120%
residual activity (PIM2 (human); compound 1.0 µM): 100%
residual activity (PIM2 (human); compound 10.0 µM): 109%
residual activity (PRKACA (human); compound 1.0 µM): 106%
residual activity (PRKACA (human); compound 10.0 µM): 107%
residual activity (PRKAA1 or PRKAA2 (rat); compound 1.0 µM): 105%
residual activity (PRKAA1 or PRKAA2 (rat); compound 10.0 µM): 107%
Compound: Cn1nc(Nc2ccc(F)cc2)c2c(N)ncnc21
